Laboratory results reported in patent US20250296928A1, “A SYNTHESIS SCHEME AND PROCEDURES FOR PREPARING A SIK3 INHIBITOR AND INTERMEDIATES THEREOF” (iOmx Therapeutics AG, priority 2021, published 2025).
Each block holds one compound with its values, some of them ahead of it.

Key:
[1] = Mouse liver microsomal stability; type: in vitro ADME
[2] = Screening PK in mice, 30 mg/kg po; type: in vivo
[3] = Full pharmacokinetic study with oral administration in mice; type: in vivo
[4] = Murine plasma protein binding; type: in vitro ADME, mouse
[5] = Human plasma-protein binding; type: in vitro ADME; conditions: for fraction unbound: human, plasma
[6] = Human liver microsomal stability; type: in vitro ADME
[7] = tested on: MC38 cells; assay: MC38 syngeneic tumour model, in-vivo anti-cancer efficacy
[8] = Human hepatocyte stability; type: in vitro ADME; conditions: for clearance classification: from human hepatocyte stability
[9] = tested on: NFKB activity (MC38); assay: TNF-induced NFKB activity in MC38 cells; type: cell-based, mouse; conditions: for Inhibition of NFKB activity (MC38): TNF-induced, 10 ng/ml rMuTNF; for Inhibition of NFKB activity: summary Table 4.3, cell line not stated
Procedure: TNF-induced NFKB activity in MC38 cells was measured analogously to the assay in PANC-1 cells described in connection with Example 9.2 (Table 9C) of WO2020/083926), except that 10 ng/ml rMuTNF was used.

[10] = tested on: HDAC4 phosphorylation; assay: TNF-induced phosphorylation of HDAC4; type: cell-based; conditions: for Inhibition of HDAC4 phosphorylation: TNF-induced; for Inhibition of HDAC phosphorylation: summary Table 4.3
[11] = tested on: MDCK-wild type cells; assay: Permeability and efflux in MDCK-wild type cells
[12] = tested on: MDCK-MDR1 cells (P-gp); assay: Permeability and efflux in MDCK-MDR1 cells; type: in vitro ADME
[13] = Mouse hepatocyte stability; type: in vitro ADME
[14] = tested on: NFKB activity (PANC-1); assay: TNF-induced NFKB activity in PANC-1 cells; type: cell-based
[15] = in vitro; conditions: dog, MDCK
[16] = tested on: MC38 syngeneic tumour model; assay: MC38 syngeneic tumour model, comparative study E9 versus dasatinib (FIG. 5); type: in vivo, mice; conditions: 25 mg/kg BID
[17] = tested on: P-gp (MDR1); assay: Permeability and efflux in MDCK-MDR1 cells; type: in vitro ADME; conditions: dog
[18] = target: T1, SIK3 (Homo sapiens, UniProt Q9Y2K2); assay: Radiometric protein kinase assay (33PanQinase Activity Assay), SIK3; type: biochemical
T1 construct: purchased ProQuinase, Freiburg, Germany
T1 sequence (Q9Y2K2 whole entry): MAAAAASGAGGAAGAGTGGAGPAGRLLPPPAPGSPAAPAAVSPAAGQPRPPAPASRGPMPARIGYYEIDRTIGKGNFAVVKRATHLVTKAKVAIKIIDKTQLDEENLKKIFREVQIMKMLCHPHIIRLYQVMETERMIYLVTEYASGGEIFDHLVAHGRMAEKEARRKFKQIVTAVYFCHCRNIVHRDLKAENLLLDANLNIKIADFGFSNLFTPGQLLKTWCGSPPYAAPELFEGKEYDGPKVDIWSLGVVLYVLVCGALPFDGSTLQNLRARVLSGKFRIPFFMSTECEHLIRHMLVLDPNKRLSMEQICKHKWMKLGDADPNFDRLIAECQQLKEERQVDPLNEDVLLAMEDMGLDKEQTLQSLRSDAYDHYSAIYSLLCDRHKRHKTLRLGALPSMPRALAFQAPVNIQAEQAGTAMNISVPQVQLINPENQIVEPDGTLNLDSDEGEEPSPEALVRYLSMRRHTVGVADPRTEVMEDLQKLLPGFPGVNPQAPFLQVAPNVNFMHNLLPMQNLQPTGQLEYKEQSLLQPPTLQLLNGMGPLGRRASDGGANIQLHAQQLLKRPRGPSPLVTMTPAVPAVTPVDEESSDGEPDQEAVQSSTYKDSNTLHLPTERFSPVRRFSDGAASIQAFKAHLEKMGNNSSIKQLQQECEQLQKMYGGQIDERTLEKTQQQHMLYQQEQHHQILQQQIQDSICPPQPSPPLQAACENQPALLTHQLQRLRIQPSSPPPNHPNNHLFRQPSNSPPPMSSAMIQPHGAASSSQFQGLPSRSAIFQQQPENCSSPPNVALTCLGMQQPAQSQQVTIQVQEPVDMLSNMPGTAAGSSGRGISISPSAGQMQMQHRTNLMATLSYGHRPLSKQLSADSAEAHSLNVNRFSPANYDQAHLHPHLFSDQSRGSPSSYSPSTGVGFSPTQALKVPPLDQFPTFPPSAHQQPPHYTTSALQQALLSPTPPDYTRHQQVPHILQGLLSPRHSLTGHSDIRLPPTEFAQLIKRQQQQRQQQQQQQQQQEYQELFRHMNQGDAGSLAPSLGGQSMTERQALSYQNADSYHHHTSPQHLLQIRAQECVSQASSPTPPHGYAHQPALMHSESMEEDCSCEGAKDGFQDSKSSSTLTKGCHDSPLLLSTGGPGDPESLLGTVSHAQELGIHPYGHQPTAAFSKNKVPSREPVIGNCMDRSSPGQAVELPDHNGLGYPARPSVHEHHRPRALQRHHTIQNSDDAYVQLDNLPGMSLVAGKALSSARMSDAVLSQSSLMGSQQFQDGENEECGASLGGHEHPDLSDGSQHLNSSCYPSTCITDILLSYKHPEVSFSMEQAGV
Procedure: (§1) Incorporation of 33Pi was determined with a microplate scintillation counter (Microbeta, Wallac).

[19] = target: T2, SIK2 (Homo sapiens, UniProt Q9H0K1); assay: Radiometric protein kinase assay (33PanQinase Activity Assay), SIK2; type: biochemical; conditions: ATP 1.0 μM
T2 construct: purchased ProQuinase, Freiburg, Germany
T2 sequence (Q9H0K1 whole entry): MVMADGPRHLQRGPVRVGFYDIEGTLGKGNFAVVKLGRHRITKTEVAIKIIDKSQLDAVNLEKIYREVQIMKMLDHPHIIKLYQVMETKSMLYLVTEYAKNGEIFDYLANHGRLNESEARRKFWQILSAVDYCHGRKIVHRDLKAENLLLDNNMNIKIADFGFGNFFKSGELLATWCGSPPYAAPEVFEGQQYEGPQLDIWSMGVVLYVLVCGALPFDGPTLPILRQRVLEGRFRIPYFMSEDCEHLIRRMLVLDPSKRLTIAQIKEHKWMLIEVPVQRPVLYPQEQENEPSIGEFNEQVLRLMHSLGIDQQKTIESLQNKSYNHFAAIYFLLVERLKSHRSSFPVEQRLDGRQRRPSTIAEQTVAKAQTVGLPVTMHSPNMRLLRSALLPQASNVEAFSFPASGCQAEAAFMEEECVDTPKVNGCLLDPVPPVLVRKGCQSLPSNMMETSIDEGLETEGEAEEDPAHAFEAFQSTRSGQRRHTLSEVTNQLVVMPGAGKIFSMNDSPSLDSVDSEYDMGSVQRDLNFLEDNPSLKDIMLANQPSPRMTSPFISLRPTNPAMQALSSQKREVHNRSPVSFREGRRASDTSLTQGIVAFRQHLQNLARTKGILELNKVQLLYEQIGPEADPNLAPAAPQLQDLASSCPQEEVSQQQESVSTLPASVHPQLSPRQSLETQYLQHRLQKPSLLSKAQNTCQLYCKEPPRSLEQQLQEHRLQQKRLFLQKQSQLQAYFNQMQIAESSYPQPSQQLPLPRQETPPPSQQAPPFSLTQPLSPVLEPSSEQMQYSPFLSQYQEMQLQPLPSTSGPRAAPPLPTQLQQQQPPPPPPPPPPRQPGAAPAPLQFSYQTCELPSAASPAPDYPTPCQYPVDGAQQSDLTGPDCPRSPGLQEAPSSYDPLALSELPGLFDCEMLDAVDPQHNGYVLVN
Procedure: as §1

[20] = mice, 30 mg/kg po, Free plasma concentration
[21] = mice, 30 mg/kg po, Total plasma concentration
[22] = Total plasma concentration at 30 mg/kg p.o dose, C7 = 1x
[23] = mouse, plasma, mice, 30 mg/kg po, Free

Mouse liver microsomal stability: Half-life ([1]; mouse liver microsomes): 62 min
Mouse liver microsomal stability: Intrinsic clearance ([1]; mouse liver microsomes): 22 µL/min/mg
Cmax after 2 h ([2]; 30 mg/kg po, 2 h): 56 ng/mL
Free plasma concentration after 6 h ([2]; 30 mg/kg po, 6 h, free): 3 nM
Plasma concentration after 6 h ([2]; 30 mg/kg po, 6 h, total): 29 nM
Tmax ([3]; mice, 30 mg/kg po, Free): 30 min
t1/2 ([3]; mice, 30 mg/kg po, Free): 144 min
Cmax [3, 20]: 10.7 ng/mL
% AUCextrap ([3]; mice, 30 mg/kg po, Total): 14%
AUCinf ([3]; mice, 30 mg/kg po, Total): 697 nM·h
AUClast ([3]; mice, 30 mg/kg po, Total): 589 nM·h
Tmax ([3]; mice, 30 mg/kg po, Total): 30 min
t1/2 ([3]; mice, 30 mg/kg po, Total): 144 min
Cmax [3, 21]: 99 ng/mL
Murine plasma protein binding: Percentage unbound ([4]; murine plasma): 11%
Human plasma-protein binding: Percentage unbound [5]: 7%
Human liver microsomal stability: Half-life ([6]; human liver microsomes): 58 min
Human liver microsomal stability: Intrinsic clearance ([6]; human liver microsomes): 24 µL/min/mg
Structure (SMILES): Cc1nc(Nc2ncc(C(=O)Nc3c(Cl)ccnc3C)s2)cc(N2CCN(CCO)CC2)n1 [Compound B3]

Structure (SMILES): Cc1nc(Nc2ncc(C(=O)Nc3c(C)csc3Cl)s2)cc(N2CCN(CCO)CC2)n1 [Compound C7]
Body weight increase ([7]; 100 mg/Kg, BID, po): 1.0%
Non-treatment related death ([7]; 100 mg/Kg, BID, po): 3/16
Tumour growth inhibition ([7]; 100 mg/Kg, BID, po): 78%
Mouse liver microsomal stability: Half-life ([1]; mouse liver microsomes): 13 min
Mouse liver microsomal stability: Intrinsic clearance ([1]; mouse liver microsomes): 110 µL/min/mg
clearance classification [8]: medium-to-high clearance drugs
Human hepatocyte stability: Half-life ([8]; human hepatocytes): 54 min
Human hepatocyte stability: Intrinsic clearance ([8]; human hepatocytes): 26 µL/min/mg
half-life in the presence of human hepatocytes ([8]; human hepatocytes): approx. 1 h
Inhibition of NFKB activity (MC38) [9]: +
Inhibition of NFKB activity [9]: +
% AUCextrap ([3]; mice, 30 mg/kg po, Free): 11.24%
AUCinf ([3]; mice, 30 mg/kg po, Free): 58.79 nM·h
AUClast ([3]; mice, 30 mg/kg po, Free): 52.07 nM·h
MRTlast ([3]; mice, 30 mg/kg po, Free): 165 min
Rsq ([3]; mice, 30 mg/kg po, Free): 0.99
Tmax ([3]; mice, 30 mg/kg po, Free): 120 min
t1/2 ([3]; mice, 30 mg/kg po, Free): 85.2 min
Cmax [3, 20]: 21.34 ng/mL
% AUCextrap ([3]; mice, 30 mg/kg po, Total): 11.24%
AUCinf ([3]; mice, 30 mg/kg po, Total): 1,306.48 nM*h
AUClast ([3]; mice, 30 mg/kg po, Total): 1,157.10 nM*h
MRTlast ([3]; mice, 30 mg/kg po, Total): 165 min
Rsq ([3]; mice, 30 mg/kg po, Total): 0.99
Tmax ([3]; mice, 30 mg/kg po, Total): 120 min
t1/2 ([3]; mice, 30 mg/kg po, Total): 85.2 min
Cmax [3, 21]: 474.16 ng/mL
Inhibition of HDAC4 phosphorylation [10]: +
Inhibition of HDAC phosphorylation [10]: +
Mean Papp A > B [11]: 9 10^−6 cm/s
Murine plasma protein binding: Percentage unbound ([4]; murine plasma): 3%
Murine plasma protein binding: Recovery at 4 h ([4]; murine plasma, 4 h): 87%
Mean Papp A > B [12]: 2 10^−6 cm/s
Mouse hepatocyte stability: Half-life ([13]; mouse hepatocytes): 50 min
Mouse hepatocyte stability: Intrinsic clearance ([13]; mouse hepatocytes): 28 µL/min/mg
Human plasma-protein binding: Percentage unbound [5]: 2%
Human plasma-protein binding: Recovery at 4 h ([5]; 4 h): 75%
Inhibition of NFKB activity (PANC-1) [14]: +
Human liver microsomal stability: Half-life ([6]; human liver microsomes): 10 min
Human liver microsomal stability: Intrinsic clearance ([6]; human liver microsomes): 142 µL/min/mg

clearance classification ([1]; from mouse liver microsomal stability): high clearance drugs
half-life ([1]; mouse liver microsomes): ~10 min
microsomal CLint ([1]; mouse liver microsomes, read-out: Mouse liver microsomal stability: Intrinsic clearance): 130 to 150 µL/min/mg
clearance classification [8]: high clearance drugs
half-life ([8]; human hepatocytes): ~25 min
improvement for free serum concentration over C7 ([2]; 30 mg/Kg po, free): 2 fold
improvement for total serum concentration over C7 ([2]; 30 mg/Kg po, total): 4.5 fold
Papp A→B [15]: 10 ×10⁻⁶ cm/s
efflux ratio [15]: 20 to 30
AUC0-last (nM*h), relative to C7 [3, 22]: 8.2x
C max (ng/ml), relative to C7 [3, 22]: 5.6x
MRT0-last (h), relative to C7 [3, 22]: 1.2x
t1/2 (h), relative to C7 [3, 22]: 2x
% AUCextrap ([3]; mice, 30 mg/kg po, Free): 0.49%
MRTlast ([3]; mice, 30 mg/kg po, Free): 203 min
Rsq ([3]; mice, 30 mg/kg po, Free): 0.84
Tmax ([3]; mice, 30 mg/kg po, Free): 15 min
t1/2 ([3]; mice, 30 mg/kg po, Free): 166 min
% AUCextrap ([3]; mice, 30 mg/kg po, Total): 0.49%
Rsq ([3]; mice, 30 mg/kg po, Total): 0.84
AUC(0-inf) [3, 23]: 0.24 µM·h
AUC(0-t) [3, 23]: 0.239 µM·h
Cmax ([3]; mouse, mice, 30 mg/kg po, Free plasma concentration, read-out: Cmax): 66.9 ng/mL
fraction unbound ([4]; mouse plasma): < 0.05
fraction unbound at 4 h ([4]; mouse, murine plasma, read-out: Murine plasma protein binding: Percentage unbound): 0.01
Papp A→B [17]: 5 ×10⁻⁶ cm/s
clearance classification ([13]; from mouse hepatocyte stability): medium clearance drug
half-life ([13]; mouse hepatocytes): ~65 min
fraction unbound ([5]; read-out: Human plasma-protein binding: Percentage unbound): 0.01
fraction unbound ([5]; read-out: human plasma protein binding): < 0.05
SIK3 IC50 (nM), relative to C7 ([18]; relative to C7 = 1x): 0.3x
potency against SIK3 improved over C7 and D9 ([18]; relative to C7 and D9): 2-3 times
IC50 [19]: < 10 nM
clearance classification ([6]; from human liver microsomal stability): high clearance drugs
half-life ([6]; human liver microsomes): ~10 min
microsomal CLint ([6]; human liver microsomes, read-out: Human liver microsomal stability: Intrinsic clearance): 130 to 150 µL/min/mg
Structure (SMILES): Cc1nc(Nc2ncc(C(=O)Nc3c(CF)csc3Cl)s2)cc(N2CCN(C)CC2)n1 [Compound E9, N-(2-chloro-4-(fluoromethyl)thiophen-3-yl)-2-((2-methyl-6-(4-methylpiperazin-1-yl)pyrimidin-4-yl)amino)thiazole-5-carboxamide]
Body weight increase ([7]; 25 mg/Kg, BID, po): 16.8%
Tumour growth inhibition ([7]; 25 mg/Kg, BID, po): 74%
Body weight increase ([7]; 50 mg/Kg, BID, po): 18.7%
Tumour growth inhibition ([7]; 50 mg/Kg, BID, po): 69%
treatment related side effects and clinical signs ([7]; administered orally): no direct treatment related side effects and clinical signs
Inhibition of NFKB activity [9]: ++
Inhibition of HDAC4 phosphorylation [10]: ++
Inhibition of HDAC phosphorylation [10]: ++
average TGI [16]: 72%

Free plasma concentration after 6 h ([2]; 30 mg/kg po, 6 h, free): 8 nM
IC50 ([18]; ATP 1.0 μM): ~60 nM
Structure (SMILES): Cc1nc(Nc2ncc(C(=O)Nc3c(C)csc3Cl)s2)cc(N2CCN(C)CC2)n1 [Compound D9]
Inhibition of HDAC4 phosphorylation [10]: +
Inhibition of NFKB activity (PANC-1) [14]: +

Cmax ([2]; mouse, plasma, 30 mg/kg po, 2 h): 550 ng/mL
Structure (SMILES): Cc1nc(Nc2ncc(C(=O)Nc3c(C)cccc3Cl)s2)cc(N2CCN(CCO)CC2)n1 [Compound A8, N-(2-chloro-6-methylphenyl)-2-[[6-[4-(2-hydroxyethyl)-1-piperazinyl]-2-methyl-4-pyrimidinyl]amino]-5-thiazolecarboxamide]
Inhibition of NFKB activity (MC38) [9]: +
Inhibition of HDAC4 phosphorylation [10]: ++
Inhibition of NFKB activity (PANC-1) [14]: +
